Measured values: patent publication US12655150B2 (Cedilla Therapeutics, Inc., priority 2021, dated 2026)

System: NCI-H226
Experiment: 72H TEAD Proliferation Assay (Cell Titer Glo 2.0)
Assay type: cell-based
Conditions: Homo sapiens, CTG 2.0, cell line not given (NCI-H226 responsive, NCI-H28 non-responsive)
Method in brief: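 NF2-deficient NCI-H226 mesothelioma cells, TEAD-dependent, treated 72 h; NF2-wild-type NCI-H28 serves as the TEAD-independent counter-screen for off-target cytotoxicity. Viable cells quantified by CellTiter-Glo 2.0 luminescence; background and time-zero signal subtracted, GI50 from nonlinear dose-response fit.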

GI50 (NCI-H226, 72 h) [nM] | SMILES | GI50 [nM]
1000 to 5000 | COC/C=C/C(=O)NCc1cn2ccnc2c(-c2ccc(C(F)(F)F)cc2)n1 [I-219, (E)-4-methoxy-N-((8-(4-(trifluoromethyl)phenyl)imidazo[1,2-a]pyrazin-6-yl)methyl)but-2-enamide] | 
1000 to 5000 | CC(C)C1CCN(c2nc3cc(C(=O)O)ccc3n3cccc23)CC1 [I-12, 4-(4-Isopropylpiperidin-1-yl)pyrrolo[1,2-a]quinoxaline-7-carboxylic acid] | 
 | O=C(/C=C/CF)NCc1nc(-c2ccc(C(F)(F)F)cc2)c2cccnc2n1 [I-308, (E)-4-fluoro-N-((4-(4-(trifluoromethyl)phenyl)pyrido[2,3-d]pyrimidin-2-yl)methyl)but-2-enamide] | ≤ 1000
1000 to 5000 | CC(C)(C)c1ccc(-c2nc3cc(C(=O)O)cc(CO)c3n3cccc23)cc1 [I-279, 4-(4-(tert-butyl)phenyl)-9-(hydroxymethyl)pyrrolo[1,2-a]quinoxaline-7-carboxylic acid] | 
≤ 1000 | COCC(C)NC(=O)N1CCc2c(cccc2-c2ccc(C(F)(F)F)cc2)C1 (centres unmarked) [I-78, N-(1-methoxypropan-2-yl)-5-(4-(trifluoromethyl)phenyl)-3,4-dihydroisoquinoline-2(1H)-carboxamide] | 
≤ 1000 | C=CC(=O)NC(C)c1cn2ccnc2c(-c2ccc(C(F)(F)F)cc2)n1 (centres unmarked) [I-172, N-(1-(8-(4-(trifluoromethyl)phenyl)imidazo[1,2-a]pyrazin-6-yl)ethyl)acrylamide] | 
> 10000 | CC(C)(C)c1cccc(-c2nc3cc(C(=O)O)ccc3n3ccnc23)c1 [I-65, 4-(3-(tert-Butyl)phenyl)imidazo[1,2-a]quinoxaline-7-carboxylic acid] | 
> 10000 | Cc1ccc(-c2nc3cc(C(=O)O)ccc3n3cccc23)cc1 [I-45, 4-(p-Tolyl)pyrrolo[1,2-a]quinoxaline-7-carboxylic acid] | 
1000 to 5000 | CC(C)(C)c1ccc(-c2nc3cc(S(N)(=O)=O)ccc3n3cccc23)cc1 [I-311, 4-(4-(tert-butyl)phenyl)pyrrolo[1,2-a]quinoxaline-7-sulfonamide] | 
1000 to 5000 | CN(C#N)Cc1cn2ccnc2c(-c2ccc(C(F)(F)F)cc2)n1 [I-239, N-methyl-N-((8-(4-(trifluoromethyl)phenyl)imidazo[1,2-a]pyrazin-6-yl)methyl)cyanamide] | 
≤ 1000 | C=CC(=O)NCc1cn2ccnc2c(Oc2cccc(C(F)(F)F)c2)n1 [I-171, N-((8-(3-(trifluoromethyl)phenoxy)imidazo[1,2-a]pyrazin-6-yl)methyl)acrylamide] | 
> 10000 | CC(C)(C)c1ccc(-c2nc3cc(C(=O)NS(=O)(=O)C4CC4)ccc3n3cccc23)cc1 [I-124, 4-(4-(tert-Butyl)phenyl)-N-(cyclopropylsulfonyl)pyrrolo[1,2-a]quinoxaline-7-carboxamide] | 
1000 to 5000 | Cn1cnc(-c2cc(-c3ccc(C(F)(F)F)cc3)nc3cc(C(=O)O)ccc23)c1 [I-388, 4-(1-methyl-1H-imidazol-4-yl)-2-(4-(trifluoromethyl)phenyl)quinoline-7-carboxylic acid] | 
≤ 1000 | C=CC(=O)NCc1cn2ccnc2c(Nc2cccc(C(F)(F)F)c2)n1 [I-169, N-((8-((3-(trifluoromethyl)phenyl)amino)imidazo[1,2-a]pyrazin-6-yl)methyl) acrylamide] | 
≤ 1000 | C=CC(=O)Nc1ccc2c(c1)nc(-c1ccc(C(C)(C)C)cc1)c1nccn12 [I-91, N-(4-(4-(tert-butyl)phenyl)imidazo[1,2-a]quinoxalin-7-yl)acrylamide] | 
1000 to 5000 | O=C(O)c1ccc2c(c1)nc(-c1ccc(C3(C(F)(F)F)CC3)cc1)c1cccn12 [I-196, 4-(4-(1-(trifluoromethyl)cyclopropyl)phenyl)pyrrolo[1,2-a]quinoxaline-7-carboxylic acid] | 
≤ 1000 | COc1cc(-c2ccc(C(F)(F)F)cc2)nc2cc(C(=O)N[C@@H](C)c3ccccn3)ccc12 [I-327, (S)-4-methoxy-N-(1-(pyridin-2-yl)ethyl)-2-(4-(trifluoromethyl)phenyl)quinoline-7-carboxamide] | 
5000 to 10000 | C=CC(=O)NC1CCCc2ccc(-c3ccc(C(F)(F)F)cc3)nc21 (centres unmarked) [I-412, N-(2-(4-(trifluoromethyl)phenyl)-5,6,7,8-tetrahydroquinolin-8-yl)acrylamide] | 
1000 to 5000 | O=C(O)c1ccc2c(c1)nc(-c1ccc(C(F)(F)F)cc1Cl)c1cccn12 [I-53, 4-(2-Chloro-4-(trifluoromethyl)phenyl)pyrrolo[1,2-a]quinoxaline-7-carboxylic acid] | 
≤ 1000 | CC(C)(C)c1ccc(-c2nc3cc(C(=O)O)ccc3n3cc(OC(F)F)cc23)cc1 [I-274, 4-(4-(tert-butyl)phenyl)-2-(difluoromethoxy)pyrrolo[1,2-a]quinoxaline-7-carboxylic acid] | 
5000 to 10000 | COc1cc(-c2ccc(C(F)(F)F)cc2)nc2cc(-c3ccccn3)ccc12 [I-418, 4-Methoxy-7-(pyridin-2-yl)-2-(4-(trifluoromethyl)phenyl)quinoline] | 
≤ 1000 | C=CC(=O)NC(C)c1cn2ccnc2c(-c2ccc(C(C)(C)C)cc2)n1 (centres unmarked) [I-142, N-(1-(8-(4-(tert-butyl)phenyl)imidazo[1,2-a]pyrazin-6-yl)ethyl)acrylamide] | 

GI50 (NCI-H226, 72 h) [nM] | SMILES | GI50 [nM]
1000 to 5000 | COc1cc(N2CCC(C(F)(F)F)CC2)nc2cc(C(=O)N[C@H](C)CO)ccc12 [I-328, (R)—N-(1-hydroxypropan-2-yl)-4-methoxy-2-(4-(trifluoromethyl)piperidin-1-yl)quinoline-7-carboxamide] | 
≤ 1000 | C=CC(=O)N1CCc2c(cccc2-c2ccc(C(F)(F)F)cc2)C1 [I-136, 1-(5-(4-(Trifluoromethyl)phenyl)-3,4-dihydroisoquinolin-2(1H)-yl)prop-2-en-1-one] | 
> 10000 | CC(C)(C)c1ccc(-c2nc3cc(CO)ccc3n3ccnc23)cc1 [I-77, (4-(4-(tert-Butyl)phenyl)imidazo[1,2-a]quinoxalin-7-yl)methanol] | 
≤ 1000 | O=C(O)c1ccc2c(c1)nc(N1CCC3(CC1)CC3)c1cccn12 [I-4, 4-(6-Azaspiro[2.5]octan-6-yl)pyrrolo[1,2-a]quinoxaline-7-carboxylic acid] | 
1000 to 5000 | CC(c1ccc(-c2nc3cc(C(=O)O)ccc3n3cccc23)cc1)C(F)(F)F (centres unmarked) [I-195, 4-(4-(1,1,1-trifluoropropan-2-yl)phenyl)pyrrolo[1,2-a]quinoxaline-7-carboxylic acid] | 
≤ 1000 | C=CC(=O)Nc1ccc2c(OC)cc(-c3ccc(C(C)(C)C)cc3)nc2c1 [I-384, N-(2-(4-(Tert-butyl)phenyl)-4-methoxyquinolin-7-yl)acrylamide] | 
> 10000 | CC(C)(C)c1ccc(-c2ncc3ccc(C(=O)O)cn23)cc1 [I-145, 3-(4-(tert-Butyl)phenyl)imidazo[1,5-a]pyridine-6-carboxylic acid] | 
≤ 1000 | Cc1cc2c(-c3ccc(C(F)(F)F)cc3F)nc3cc(C(=O)O)ccc3n2c1 [I-84, 4-(2-Fluoro-4-(trifluoromethyl)phenyl)-2-methylpyrrolo[1,2-a]quinoxaline-7-carboxylic acid] | 
≤ 1000 | C=CC(=O)NCc1cn2c(F)ccc2c(-c2ccc(C(C)(C)C)cc2)n1 [I-409, N-((1-(4-(tert-butyl)phenyl)-6-fluoropyrrolo[1,2-a]pyrazin-3-yl)methyl)acrylamide] | 
≤ 1000 | C=CC(=O)NCc1cn2nccc2c(-c2ccc(C(F)(F)F)cc2)n1 [I-316, N-((4-(4-(trifluoromethyl)phenyl)pyrazolo[1,5-a]pyrazin-6-yl)methyl)acrylamide] | 
1000 to 5000 | O=C(O)c1ccc2c(c1)nc(-c1ccc(C(F)(F)F)cc1)c1nccn12 [I-61, 4-(4-(Trifluoromethyl)phenyl)imidazo[1,2-a]quinoxaline-7-carboxylic acid] | 
> 10000 | CN(CCC(F)(F)F)c1nc2cc(C(=O)O)ccc2n2cccc12 [I-126, 4-(Methyl(3,3,3-trifluoropropyl)amino)pyrrolo[1,2-a]quinoxaline-7-carboxylic acid] | 
5000 to 10000 | O=C(O)c1ccc2c(c1)nc(N1CCC3(CCCCCC3)C1)c1cccn12 [I-25, 4-(2-Azaspiro[4.6]undecan-2-yl)pyrrolo[1,2-a]quinoxaline-7-carboxylic acid] | 
5000 to 10000 | O=C(O)c1ccc2c(c1)nc(N1CCC3(CCC3)C1)c1cccn12 [I-33, 4-(6-Azaspiro[3.4]octan-6-yl)pyrrolo[1,2-a]quinoxaline-7-carboxylic acid] | 
1000 to 5000 | Cc1cc(-c2ccc(C(F)(F)F)cc2)nc2cc(C(N)=O)ccc12 [I-258, 4-Methyl-2-(4-(trifluoromethyl)phenyl)quinoline-7-carboxamide] | 
1000 to 5000 | O=C(O)c1cc2nc(N3CCC4(CC3)CC4)c3cccn3c2cn1 [I-281, 6-(6-azaspiro[2.5]octan-6-yl)pyrido[4,3-e]pyrrolo[1,2-a]pyrazine-3-carboxylic acid] | 
1000 to 5000 | C=CC(=O)NCc1cn2ccnc2c(-c2ccc(F)cc2)n1 [I-110, N-((8-(4-fluorophenyl)imidazo[1,2-a]pyrazin-6-yl)methyl)acrylamide] | 
> 10000 | CC(C)(C)c1ccc(-c2nc(C(=O)O)cn3cncc23)cc1 [I-94, 8-(4-(tert-Butyl)phenyl)imidazo[1,5-a]pyrazine-6-carboxylic acid] | 
≤ 1000 | CCOc1cc(-c2ccc(C(F)(F)F)cc2)nc2cc(C(=O)O)ccc12 [I-393, 4-ethoxy-2-(4-(trifluoromethyl)phenyl)quinoline-7-carboxylic acid] | 
1000 to 5000 | Cc1cc(-c2ccc(OC(F)(F)F)cc2)nc2cc(C(=O)N[C@H](C)CO)ccc12 [I-255, (R)—N-(1-hydroxypropan-2-yl)-4-methyl-2-(4-(trifluoromethoxy)phenyl)quinoline-7-carboxamide] | 
1000 to 5000 | C=CC(=O)Nc1ccc2cnc(-c3ccc(F)cc3)nc2c1 [I-82, N-(2-(4-Fluorophenyl)quinazolin-7-yl)acrylamide] | 
≤ 1000 | COc1cc(-c2ccc(C(F)(F)F)cc2F)nc2cc(C(=O)N[C@H](C)CO)ccc12 [I-337, (R)-2-(2-fluoro-4-(trifluoromethyl)phenyl)-N-(1-hydroxypropan-2-yl)-4-methoxyquinoline-7-carboxamide] | 
